Test results taken from article PMC12195967, “Cobalt(II) Complexes of 4′–Nitro–Fenamic Acid: Characterization and Biological Evaluation” (Molecules, 2025).
Read-outs that look alike come from different tables or passages of the source.

Columns and labels:
Experiment in all cases: Antibacterial activity, MIC
Assay type in all cases: cell-based
[1] = tested on: Bacillus subtilis ATCC 6633; conditions: 24 h incubation, 37°C; for MIC: read-out: MIC, B. subtilis
Text: (§1) In order to evaluate the antimicrobial activity of the synthesized 4′–NO2–fenH and its Co(II) complexes 1–4, two Gram-positive (B. subtilis and S. aureus) and two Gram-negative (X. campestris and E. coli) strains were used. In general, the increased antimicrobial activity of the complexes is attributed to five main factors: (i) the chelation effect of the ligands, (ii) the chemical nature of the ligands, (iii) the nature and the nuclearity of the metal center, (iv) the total charge of the complex and (v) the presence and nature of counter ions. […]
(§2) S2 Antibacterial Activity studies
(§3) The antibacterial activity of the compounds was evaluated by determining their respective MIC values towards two Gram–(–) (Escherichia coli XL1 (E. coli) and Xanthomonas campestris ATCC 1395 (X. campestris)) and two Gram–(+) (Staphylococcus aureus ATCC 29213 (S. aureus) and Bacillus subtilis ATCC 6633 (B. subtilis)) bacterial species. Cultures of these microbial strains were grown on a rich selective agar medium and stored at 4°C. The selective media used were Nutrient Agar or Broth for B. subtilis and S. aureus, Yeast Mold Agar or Broth for X. campestris and Luria Agar or Broth for E. coli. Cells picked from the surface of the stored cultures were used to initiate liquid pre–cultures of the same selective medium at an initial turbidity of roughly 1 McFarland unit.
(§4) Pre–cultures were incubated for 24 h in a rotary shaking incubator and subsequently they were used to inoculate the test cultures used for the determination of MIC at an initial turbidity of 0.5 McFarland units. The test cultures consisted of Mueller–Hinton broth (Deben Diagnostics Ltd) containing different concentrations of the compounds. Different concentrations were achieved as follows: the compounds were freshly dissolved in DMSO to a concentration of 1 mg/mL, and they were diluted with DMSO, using the method of progressive double dilution. Therefore, working solutions with decreasing concentrations of the compounds under investigation were achieved.
(§5) The working solutions were subsequently diluted to the final desired concentration by addition to the growth medium at a proportion of 2:98. MIC values were determined as the lowest concentrations of the tested compounds that inhibited visible growth of each respective organism after a 24 h incubation. Bacterial growth was determined by measuring the turbidity of appropriately diluted cultures at 600 nm with reference to equally diluted sterile growth medium and the inhibition achieved was calculated by comparing the turbidity of each culture to the average of the turbidity of three non–inhibited cultures. All test cultures were grown in triplicates and for the determination of MIC, growth had to be inhibited in at least two cultures of the triplicate. The incubation temperature at all stages was 37°C except for X. campestris that was cultivated at 28°C [4].

Escherichia coli XL1 = conditions: 24 h incubation, 37°C
Text: as §1, §2, §3, §4, §5

[2] = tested on: Staphylococcus aureus ATCC 29213; conditions: 24 h incubation, 37°C; for MIC: read-out: MIC, S. aureus
Text: as §1, §2, §3, §4, §5

[3] = tested on: Xanthomonas campestris ATCC 33013; conditions: for MIC: read-out: MIC, X. campestris
Text: as §1, §2, §3, §4, §5

[4] = value in parentheses, 24 h incubation, 28°C

Compound | MIC ([1]; Bacillus subtilis, ATCC6633) | MIC ([1]; Bacillus subtilis, ATCC6633, value in parentheses) | MIC (Escherichia coli XL1; Escherichia coli, XL1) | MIC (Escherichia coli XL1; Escherichia coli, XL1, value in parentheses) | MIC ([2]; Staphylococcus aureus, ATCC29213) | MIC ([2]; Staphylococcus aureus, ATCC29213, value in parentheses) | MIC ([3]; Xanthomonas campestris, ATCC33013, 24 h) | MIC ([3]; Xanthomonas campestris, ATCC33013, value in parentheses, 24 h incubation, 28°C) | MIC, B. subtilis [1] | MIC ([1]; value in parentheses) | MIC, E. coli (Escherichia coli XL1) | MIC (Escherichia coli XL1; value in parentheses) | MIC, S. aureus [2] | MIC ([2]; value in parentheses) | MIC, X. campestris ([3]; 24 h incubation, 28°C) | MIC [3, 4]
O=C(O)c1ccccc1Nc1ccc([N+](=O)[O-])cc1 [4′–NO2–fenH, 4′–nitrofenamic acid] | 12.5 µg/mL | 48 µM | 25 µg/mL | 97 µM | 25 µg/mL | 97 µM | 25 µg/mL | 97 µM |  |  |  |  |  |  |  | 
CO.CO.CO.CO.O=C([O-])c1ccccc1Nc1ccc([N+](=O)[O-])cc1.O=C([O-])c1ccccc1Nc1ccc([N+](=O)[O-])cc1.[Co+2] [Complex 1, [Co(4′–NO2–fen)2(MeOH)4]] |  |  |  |  |  |  |  |  | 12.5 µg/mL | 18 µM | > 50 µg/mL | > 71 µM | 12.5 µg/mL | 18 µM | > 50 µg/mL | > 71 µM
O=C([O-])c1ccccc1Nc1ccc([N+](=O)[O-])cc1.O=C([O-])c1ccccc1Nc1ccc([N+](=O)[O-])cc1.[Co+2].c1ccc(Nc2ccccn2)nc1 [Complex 2, [Co(4′–NO2–fen)2(bipyam)]] |  |  |  |  |  |  |  |  | 25 µg/mL | 34 µM | > 50 µg/mL | > 67 µM | > 50 µg/mL | > 67 µM | 25 µg/mL | 
O=C([O-])c1ccccc1Nc1ccc([N+](=O)[O-])cc1.O=C([O-])c1ccccc1Nc1ccc([N+](=O)[O-])cc1.[Co+2].c1cnc2c(c1)ccc1cccnc12 [Complex 3, [Co(4′–NO2–fen)2(phen)]] |  |  |  |  |  |  |  |  | 25 µg/mL | 33 µM | 25 µg/mL | 33 µM | 25 µg/mL | 33 µM | 25 µg/mL | 33 µM
C[O-].C[O-].Cc1ccc2ccc3ccc(C)nc3c2n1.Cc1ccc2ccc3ccc(C)nc3c2n1.O=C([O-])c1ccccc1Nc1ccc([N+](=O)[O-])cc1.O=C([O-])c1ccccc1Nc1ccc([N+](=O)[O-])cc1.[Co+2].[Co+2] [Complex 4, [Co2(4′–NO2–fen)2(μ–CH3O)2(neoc)2]] |  |  |  |  |  |  |  |  | 12.5 µg/mL | 11 µM | > 50 µg/mL | > 45 µM | 12.5 µg/mL | 11 µM | 12.5 µg/mL | 11 µM
